How the values were obtained:
[1] = molecular target: Tyrosine-protein kinase JAK1 (Homo sapiens, UniProt P23458); assay: Subsequent reagent additions employed an Agilent Bravo.
[2] = molecular target: Tyrosine-protein kinase JAK2 (Homo sapiens, UniProt O60674)
Sequence of Tyrosine-protein kinase JAK2 (O60674 whole entry): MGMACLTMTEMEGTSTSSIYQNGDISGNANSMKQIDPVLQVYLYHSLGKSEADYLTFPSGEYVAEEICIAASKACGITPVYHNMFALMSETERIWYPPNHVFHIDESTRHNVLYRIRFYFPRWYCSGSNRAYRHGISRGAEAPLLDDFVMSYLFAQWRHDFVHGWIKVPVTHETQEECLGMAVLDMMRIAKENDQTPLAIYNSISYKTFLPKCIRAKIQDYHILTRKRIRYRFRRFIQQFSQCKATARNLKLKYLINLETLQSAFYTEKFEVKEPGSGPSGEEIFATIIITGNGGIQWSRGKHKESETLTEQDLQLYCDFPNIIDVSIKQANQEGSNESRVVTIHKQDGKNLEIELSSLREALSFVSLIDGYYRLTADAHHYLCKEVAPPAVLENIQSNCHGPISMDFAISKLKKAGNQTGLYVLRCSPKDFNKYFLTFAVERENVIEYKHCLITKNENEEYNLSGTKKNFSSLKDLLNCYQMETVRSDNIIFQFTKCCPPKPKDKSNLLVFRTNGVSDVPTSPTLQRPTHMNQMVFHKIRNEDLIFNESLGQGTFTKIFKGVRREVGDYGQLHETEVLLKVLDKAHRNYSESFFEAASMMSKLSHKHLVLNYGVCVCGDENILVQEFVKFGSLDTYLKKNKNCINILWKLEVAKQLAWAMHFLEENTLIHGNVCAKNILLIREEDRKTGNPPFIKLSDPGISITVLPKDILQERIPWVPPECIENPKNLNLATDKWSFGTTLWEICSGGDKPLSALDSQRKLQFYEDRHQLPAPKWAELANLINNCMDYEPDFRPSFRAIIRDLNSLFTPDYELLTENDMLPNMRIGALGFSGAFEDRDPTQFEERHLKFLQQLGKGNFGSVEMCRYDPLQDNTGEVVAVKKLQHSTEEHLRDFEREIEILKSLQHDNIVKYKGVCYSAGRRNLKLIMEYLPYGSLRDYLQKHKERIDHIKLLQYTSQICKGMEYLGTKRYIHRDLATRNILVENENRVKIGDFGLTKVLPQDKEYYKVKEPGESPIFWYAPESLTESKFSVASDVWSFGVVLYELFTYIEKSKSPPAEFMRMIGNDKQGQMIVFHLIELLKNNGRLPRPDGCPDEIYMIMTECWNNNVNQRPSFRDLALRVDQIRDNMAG

Sequence of Tyrosine-protein kinase JAK1 (P23458 whole entry): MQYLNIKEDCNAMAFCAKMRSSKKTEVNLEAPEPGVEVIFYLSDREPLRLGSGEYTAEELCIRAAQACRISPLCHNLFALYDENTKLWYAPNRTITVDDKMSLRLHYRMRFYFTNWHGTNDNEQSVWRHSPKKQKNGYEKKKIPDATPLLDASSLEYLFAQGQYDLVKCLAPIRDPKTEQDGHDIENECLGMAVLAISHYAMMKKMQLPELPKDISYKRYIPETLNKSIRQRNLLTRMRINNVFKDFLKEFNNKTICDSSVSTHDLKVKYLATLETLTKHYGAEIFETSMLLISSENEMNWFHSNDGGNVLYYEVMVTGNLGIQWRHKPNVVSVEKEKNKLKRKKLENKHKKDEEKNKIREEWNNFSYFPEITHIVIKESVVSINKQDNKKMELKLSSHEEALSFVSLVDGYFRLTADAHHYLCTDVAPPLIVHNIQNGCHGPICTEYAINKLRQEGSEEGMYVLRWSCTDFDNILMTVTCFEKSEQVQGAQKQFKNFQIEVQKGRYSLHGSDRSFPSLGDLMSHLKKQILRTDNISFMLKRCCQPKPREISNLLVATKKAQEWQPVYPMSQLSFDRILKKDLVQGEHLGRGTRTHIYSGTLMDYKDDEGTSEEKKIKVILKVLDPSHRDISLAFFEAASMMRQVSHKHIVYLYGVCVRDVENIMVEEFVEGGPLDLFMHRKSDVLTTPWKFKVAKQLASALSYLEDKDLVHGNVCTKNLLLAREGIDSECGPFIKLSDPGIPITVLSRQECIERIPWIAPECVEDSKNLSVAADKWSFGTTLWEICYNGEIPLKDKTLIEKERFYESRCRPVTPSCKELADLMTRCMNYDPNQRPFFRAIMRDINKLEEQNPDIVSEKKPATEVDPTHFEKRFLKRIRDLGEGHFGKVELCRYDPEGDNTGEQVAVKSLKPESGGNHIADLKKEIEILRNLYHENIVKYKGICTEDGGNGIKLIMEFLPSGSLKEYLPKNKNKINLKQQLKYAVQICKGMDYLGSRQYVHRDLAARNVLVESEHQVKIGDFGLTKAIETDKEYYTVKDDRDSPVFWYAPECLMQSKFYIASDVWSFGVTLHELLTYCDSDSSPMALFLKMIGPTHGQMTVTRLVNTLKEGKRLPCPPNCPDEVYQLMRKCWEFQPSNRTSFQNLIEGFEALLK

Work on N#C[C@H]1CCOC[C@@H]1n1cc(C(N)=O)c(Nc2ccc(OC(F)(F)F)cc2)n1 (single isomer, unassigned) yielded an IC50 [1] of 0.2 nM and an IC50 [2] of 1 nM.

Reference: ChEMBL document CHEMBL3886818, “Pyrazole carboxamides as Janus kinase inhibitors” (2016)
